Values quoted from earlier work in the PKSmart pharmacokinetics tables (Seal et al. 2025).

Experiment: Lombardo et al. 2013, J Clin Pharmacol 53:178, doi 10.1177/0091270012440282
Conditions: for Vd / clearance: in vivo, iv; for fraction unbound: plasma

Molecule	Vd (rat) [L/kg]	clearance (rat) [mL/min/kg]	fraction unbound (rat)	Vd (dog) [L/kg]	clearance (dog) [mL/min/kg]	fraction unbound (dog)	Vd (monkey) [L/kg]	clearance (monkey) [mL/min/kg]	fraction unbound (monkey)
CN(c1nc2ccccc2s1)C1CCN(CC(O)COc2ccc(F)cc2)CC1 (stereo not given)	5.8	35.9	0.016						
CC(C)(N)CC(=O)NC1CCc2ccccc2N(Cc2ccc(-c3ccccc3-c3nn[nH]n3)cc2)C1=O (stereo not given)	0.15	2.7	0.02	0.34	19.3	0.86	0.16	5.7	0.06
COC1CC(OC2C(C)C(=O)OC(C)C(C)C(O)C(C)C(=O)C3(CO3)CC(C)C(OC3OC(C)CC(N(C)C)C3O)C2C)OC(C)C1O (stereo not given)	6.8	51	0.46	1.6	12	0.13			
COc1ccc2nc([S+](O)Cc3ncc(C)c(OC)c3C)[n-]c2c1 (stereo not given)	0.44	53	0.19						
CC1C(=O)O[C@H]2C[C@@]34[C@H]5C[C@@H](C(C)(C)C)[C@@]36C(O)C(=O)O[C@H]6O[C@@]4(C(=O)O5)[C@@]12O (stereo not given in full)	4.3	65							
CCC[C@@H]1CC(C(=O)N[C@@H]([C@H]2O[C@H](SC)[C@H](O)[C@@H](O)[C@H]2O)[C@H](C)Cl)N(C)C1 (stereo not given in full)			0.325			0.035			
O=c1nc[nH]c2c1ncn2[C@H]1CC[C@@H](CO)O1	1.3	150		0.96	25.3		1.3	27.2	
CC(C)(C)[C@]1(O)C[C@@H]2OC(=O)C[C@@]23C(=O)O[C@@H]2OC(=O)C(O)[C@]213 (stereo not given in full)	10	140							
CC(=O)N[C@H]1[C@H]([C@H](O)[C@H](O)CO)OC(C(=O)O)=C[C@@H]1N=C(N)N	0.8	31.7							
OC(CNCC(O)C1CCc2cc(F)ccc2O1)C1CCc2cc(F)ccc2O1 (stereo not given)	6.2	49	0.015						
C#CCN(C)[C@H](C)Cc1ccccc1			0.31	9.46	160				
Cn1c(=O)c2[nH]cnc2n(C)c1=O		2.25		0.68	1.8		0.69	3.8	
CCN[C@@H]1C[C@H](N)[C@@H](OC2OC(CN)=CCC2N)[C@H](O)[C@H]1O[C@H]1OC[C@](C)(O)[C@H](NC)[C@H]1O (stereo not given in full)				0.34	3.4				
NC(N)=Nc1nc(CSCCC(N)=NS(N)(=O)=O)cs1	0.8	22	0.47	0.79	8.6	0.72	2.1	15	0.13
C[C@@H](O)C1C(=O)N2C(C(=O)O)=C(S[C@@H]3CN[C@H](CNS(N)(=O)=O)C3)[C@H](C)[C@H]12 (stereo not given in full)		35.7	0.65		4.7	0.9		7.7	0.94
CCCCC[C@H](O)CC[C@@H]1[C@H]2Cc3cccc(OCC(=O)O)c3C[C@H]2C[C@H]1O				0.11	35.8				
C[C@@H](O)C1C(=O)N2C(C(=O)O)=C(SCC/N=C/N)C[C@H]12 (stereo not given in full)		14.5	1		4.3	1		5.7	0.975
CC(=O)Nc1ccc(O)cc1			0.27						
[H]/N=C(\N)c1ccc(OCCCCCOc2ccc(/C(N)=N/[H])cc2)cc1	10.1	112	0.4	6.6	60.6	0.266			
Cc1cccc([C@H](C)c2cnc[nH]2)c1C	3.24	59.4							
CCCc1nn(C)c2c(=O)nc(-c3cc(S(=O)(=O)N4CCN(C)CC4)ccc3OCC)[nH]c12	1.1	48		5.2	12	0.14			

Molecule	Vd (rat) [L/kg]	clearance (rat) [mL/min/kg]	fraction unbound (rat)	Vd (dog) [L/kg]	clearance (dog) [mL/min/kg]	fraction unbound (dog)	Vd (monkey) [L/kg]	clearance (monkey) [mL/min/kg]	fraction unbound (monkey)
[H]/N=C(\N)N1CCC[C@@H](CNC(=O)CC(NS(=O)(=O)c2ccc3ccccc3c2)C(=O)N(CC(=O)O)C2CC2)C1 (stereo not given in full)	0.6		0.33	0.64		0.52	0.32		
Cc1nnc(C(C)C)n1C1C[C@H]2CC[C@@H](C1)N2CC[C@H](NC(=O)C1CCC(F)(F)CC1)c1ccccc1 (stereo not given in full)	2.53	74	0.49	2.32	21	0.36			
CC1(C)SC2C(NC(=O)C(NC(=O)N3CCNC3=O)c3ccccc3)C(=O)N2C1C(=O)O (stereo not given)				0.27	2.8				
[H]/N=C(\N)c1ccc(C(=O)NC(Cc2ccc(O)cc2)C(=O)N2CCC(OCC(=O)O)CC2)cc1 (stereo not given)	0.24			0.75			0.29		
O=C(c1ccccc1)c1ccc2n1CCC2C(=O)O (stereo not given)		3.6		0.33	1.25				
CCC1=NC(=O)C2CSSCC/C=C\[C@H](CC(=O)NC(C(C)C)C(=O)N2)OC(=O)C(C(C)C)NC1=O (stereo not given in full)	63.8	625					4.95	27.9	
CC1C(=O)O[C@H]2[C@H](O)[C@@]34[C@H]5C[C@@H](C(C)(C)C)[C@@]36C(O)C(=O)O[C@H]6O[C@@]4(C(=O)O5)[C@@]12O (stereo not given in full)	3.5	60							
NC(=O)C(c1ccccc1)(c1ccccc1)[C@@H]1CCN(CCc2ccc3c(c2)CCO3)C1	7	59		6.8	39				
CONC(C(=O)N=C1C(=O)N2C(C(=O)[O-])=C(C[N+]34CCC(C(N)=O)(CC3)CC4)CS[C@H]12)c1nsc(N)n1 (stereo not given in full)				0.23	3.3				
OC(CCN1CCCCC1)(c1ccccc1)C1CC2C=CC1C2 (stereo not given)			0.31	9.7	27	0.19			
O=C(OC1CC2CC3C[C@@H](C1)N2CC3=O)c1c[nH]c2ccccc12 (stereo not given in full)	26	72			27	0.5		77	0.5
Valproic Acd	0.66	4.2	0.366	0.33	3.03	0.215	0.25	4.2	0.22
COC(=O)Nc1nc2ccc(C(=O)c3ccccc3)cc2[nH]1	2.6	9.8							
C[C@@H](O)C1C(=O)N2C(C(=O)O)=C(S[C@H]3CC(C(=O)N4CC[C@H](NC(=O)CN=C(N)N)C4)N(C)C3)[C@H](C)[C@H]12 (stereo not given in full)	0.2	15.7	0.95	0.25	3.96	0.928	0.18	1.7	0.85
O=C(CCCCCCC(O)=NO)Nc1ccccc1	1.6	130				0.458			
CN1C2CCC[C@@H]1CC(NC(=O)c1nn(C)c3ccccc13)C2 (stereo not given in full)	16.7	824							
CC(NC(=O)N(CCCl)N=O)C(N)=O (stereo not given)					17.6				
COc1ccccc1Oc1c(NS(=O)(=O)c2ccc(C)cn2)nc(-c2ccnc(-c3nn[nH]n3)c2)nc1OCCO	0.32	11.7		0.11	2.89		0.36	19	
Oc1ccc2c(c1)[C@]13CCCC[C@@]1(O)[C@H](C2)N(CC1CCC1)CC3	4.8	91.2	0.34	8.4	58	0.369			
[H]/N=C(\N)c1ccc(CNC(=O)C2CCN2C(=O)C(NCC(=O)O)C2CCCCC2)cc1 (stereo not given)	0.39	16.9	0.9	0.36	7	0.89			
